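All cell lines were grown in 96-well plates and treated with compound for 48 hours. Definition used: TGI = concentration required for complete inhibition of growth.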
Key:
Assay in all cases: NCI anticancer screen, dose series, 48 h
[1] = test system: TK-10 renal
[2] = test system: SK-MEL-5 melanoma
[3] = test system: SNB-75 CNS
[4] = test system: CAKI-1 renal
[5] = test system: BT-549 breast
[6] = test system: OVCAR-8 ovarian
[7] = test system: EKVX NSCLC
[8] = test system: HOP-62 NSCLC
[9] = test system: ACHN renal
[10] = test system: OVCAR-4 ovarian
[11] = test system: MALME-3M melanoma
[12] = test system: RPMI-8226 leukemia
[13] = test system: MDA-MB-231 breast
[14] = test system: OVCAR-5 ovarian
[15] = test system: HOP-92 NSCLC
[16] = test system: NCI/ADR-RES ovarian
[17] = test system: SK-MEL-28 melanoma
[18] = test system: M14 melanoma
[19] = test system: IGROV1 ovarian
[20] = test system: OVCAR-3 ovarian
[21] = test system: PC-3 prostate
[22] = test system: DU-145 prostate
[23] = test system: SK-MEL-2 melanoma
[24] = test system: UACC-257 melanoma
[25] = test system: SF-539 CNS
[26] = test system: MDA-N
[27] = test system: HL-60(TB) leukemia
[28] = test system: A549 NSCLC
[29] = test system: HCT-15 colon
[30] = test system: SK-OV-3 ovarian
[31] = test system: K-562 leukemia
[32] = test system: UO-31 renal
[33] = test system: SF-268 CNS
[34] = test system: SNB-19 CNS
[35] = test system: NCI-H23 lung
[36] = test system: SW-620 colon
[37] = test system: A498 renal
[38] = test system: CCRF-CEM leukemia
[39] = test system: NCI-H226 lung
[40] = test system: MCF7 breast
[41] = test system: SN12C renal
[42] = test system: COLO 205 colon
[43] = test system: NCI-H460 lung
[44] = test system: KM12 colon
[45] = test system: MOLT-4 leukemia
[46] = test system: MDA-MB-435
[47] = test system: SF-295 CNS
[48] = test system: HT29 colon
[49] = test system: T-47D breast
[50] = test system: UACC-62 melanoma
[51] = test system: HS 578T breast
[52] = test system: SR leukemia
[53] = test system: LOX IMVI melanoma
[54] = test system: 786-0 renal
[55] = test system: RXF 393 renal
[56] = test system: NCI-H522 lung
[57] = test system: HCT-116 colon
[58] = test system: HCC-2998 colon
[59] = test system: U251 CNS

O=C(NCCCNCCCNC(=O)c1cc(-c2ccccc2)nc2ccccc12)c1cc(-c2ccccc2)nc2ccccc12
TGI [1]: 3.22 µM
TGI [2]: 3.45 µM
TGI [3]: 2.96 µM
TGI [4]: 3.7 µM
TGI [5]: > 23.7 µM
TGI [6]: > 100 µM
TGI [7]: 3.32 µM
TGI [8]: 2.16 µM
TGI [9]: 3.2 µM
TGI [10]: 3.32 µM
TGI [11]: 3.5 µM
TGI [12]: 4.78 µM
TGI [13]: 3.14 µM
TGI [14]: 3.53 µM
TGI [15]: 4.17 µM
TGI [16]: 4.13 µM
TGI [17]: 3.09 µM
TGI [18]: 3.19 µM
TGI [19]: 3.19 µM
TGI [20]: 3.23 µM
TGI [21]: 2.99 µM
TGI [22]: 3.08 µM
TGI [23]: 3.55 µM
TGI [24]: 3.73 µM
TGI [25]: > 100 µM
TGI [26]: 3.13 µM
TGI [27]: 3.16 µM
TGI [28]: 3.34 µM
TGI [29]: > 100 µM
TGI [30]: 4.95 µM
TGI [31]: 3.53 µM
TGI [32]: 3.38 µM

O=C1C=CC[C@H]2O[C@@H](COC(=O)Cc3ccccc3)C[C@H]2O1
TGI [1]: 65.5 µM
TGI [2]: > 100 µM
TGI [3]: 77.2 µM
TGI [4]: > 100 µM
TGI [33]: 56.2 µM
TGI [34]: > 100 µM
TGI [6]: 77.9 µM
TGI [35]: 66.6 µM
TGI [36]: > 100 µM
TGI [37]: > 100 µM
TGI [38]: > 100 µM
TGI [7]: 70.1 µM
TGI [8]: > 100 µM
TGI [9]: > 100 µM
TGI [10]: 85.9 µM
TGI [39]: > 100 µM
TGI [12]: > 100 µM
TGI [13]: > 100 µM
TGI [40]: > 100 µM
TGI [14]: > 100 µM
TGI [15]: > 100 µM
TGI [16]: > 100 µM
TGI [41]: > 100 µM
TGI [42]: > 100 µM
TGI [43]: > 100 µM
TGI [17]: 74.4 µM
TGI [44]: 42.4 µM
TGI [18]: > 100 µM
TGI [19]: 54.6 µM
TGI [20]: > 100 µM
TGI [21]: > 100 µM
TGI [22]: > 100 µM
TGI [23]: > 100 µM
TGI [24]: > 100 µM
TGI [45]: > 100 µM
TGI [46]: > 100 µM
TGI [25]: > 100 µM
TGI [26]: > 100 µM
TGI [27]: 65.2 µM
TGI [47]: > 100 µM
TGI [28]: > 100 µM
TGI [48]: 71.7 µM
TGI [29]: 45.7 µM
TGI [49]: > 100 µM
TGI [30]: > 100 µM
TGI [50]: > 100 µM
TGI [31]: > 100 µM
TGI [51]: 59.4 µM
TGI [32]: > 100 µM
TGI [52]: > 100 µM

O=Cc1ccc2c(c1)CC1(Cc3ccccc3C1)C2
TGI [1]: > 100 µM
TGI [53]: 37.9 µM
TGI [2]: 29.4 µM
TGI [54]: 29.9 µM
TGI [6]: 39 µM
TGI [35]: 50 µM
TGI [37]: 83.7 µM
TGI [38]: 25.5 µM
TGI [7]: > 100 µM
TGI [8]: 34.2 µM
TGI [9]: 65.7 µM
TGI [10]: 48.7 µM
TGI [39]: 73.2 µM
TGI [55]: > 100 µM
TGI [11]: 36.3 µM
TGI [12]: 53.4 µM
TGI [13]: 30.4 µM
TGI [56]: > 100 µM
TGI [40]: 66.4 µM
TGI [14]: > 100 µM
TGI [15]: 32.9 µM
TGI [16]: 79.8 µM
TGI [41]: 34.4 µM
TGI [42]: 54.2 µM
TGI [57]: > 100 µM
TGI [44]: > 100 µM
TGI [18]: 26.8 µM
TGI [19]: 46.1 µM
TGI [20]: 28.3 µM
TGI [21]: 59.6 µM
TGI [23]: 27.1 µM
TGI [24]: 44.1 µM
TGI [45]: 42.9 µM
TGI [46]: 37.6 µM
TGI [25]: 33.2 µM
TGI [26]: 38.9 µM
TGI [27]: 39.5 µM
TGI [47]: 94.5 µM
TGI [28]: > 100 µM
TGI [48]: 51.2 µM
TGI [58]: > 100 µM
TGI [59]: 36.2 µM
TGI [29]: 73.4 µM
TGI [49]: > 100 µM
TGI [30]: > 100 µM
TGI [50]: 41.4 µM
TGI [31]: 44.9 µM
TGI [51]: > 100 µM
TGI [32]: 58.7 µM
TGI [52]: 18.4 µM

CCN(CC)C(=S)N/N=C(/C)c1cccc(/C(C)=N\NC(=S)N(CC)CC)n1
TGI [1]: 11.7 µM
TGI [53]: 7.36 µM
TGI [2]: 8.2 µM
TGI [3]: 10.2 µM
TGI [54]: 11.5 µM
TGI [4]: 5.29 µM
TGI [33]: 7.47 µM
TGI [34]: 18.4 µM
TGI [6]: 3.19 µM
TGI [35]: 19.2 µM
TGI [36]: 15.2 µM
TGI [37]: 4.16 µM
TGI [38]: > 100 µM
TGI [7]: 12.5 µM
TGI [8]: 6.76 µM
TGI [9]: 4.61 µM
TGI [10]: 7.32 µM
TGI [39]: 4.77 µM
TGI [55]: 7.03 µM
TGI [11]: 7.41 µM
TGI [12]: 6.17 µM
TGI [13]: 7.64 µM
TGI [56]: 16 µM
TGI [40]: 5.3 µM
TGI [14]: 20.8 µM
TGI [15]: 7.74 µM
TGI [16]: 10.5 µM
TGI [41]: 12.4 µM
TGI [42]: 11.3 µM
TGI [43]: 6.36 µM
TGI [57]: 11.4 µM
TGI [17]: 3.88 µM
TGI [44]: 4.1 µM
TGI [18]: 3.63 µM
TGI [19]: 8.08 µM
TGI [20]: 7.44 µM
TGI [21]: 17 µM
TGI [22]: 4.83 µM
TGI [23]: 20.3 µM
TGI [24]: 11 µM
TGI [45]: 5.77 µM
TGI [46]: 14.9 µM
TGI [25]: 3.28 µM
TGI [26]: 21.4 µM
TGI [27]: 3.77 µM
TGI [47]: 6.7 µM
TGI [28]: 11.3 µM
TGI [48]: 13.2 µM
TGI [58]: 23.8 µM
TGI [59]: 8.74 µM
TGI [29]: 17.1 µM
TGI [49]: 16.9 µM
TGI [30]: 5.43 µM
TGI [50]: 8.15 µM
TGI [31]: 11.6 µM
TGI [51]: > 100 µM
TGI [32]: 7.94 µM
TGI [52]: 2.4 µM

Reference: PubChem BioAssay (NCI)
